Laboratory results taken from PMC7026418, “The kinase polypharmacology landscape of clinical PARP inhibitors” (Scientific Reports, 2020).
Like-named read-outs stand apart in the source and are kept apart here. One block for each molecule: values may come before it.

Legend:
Assay in all cases: biochemical
Parameters in all cases: DiscoveRx KINOMEscan active site-directed competition binding; percent of control kinase bound to immobilised ligand
IRAK1 = IRAK1 (Homo sapiens, UniProt P51617)
GRK4 = GRK4 (Homo sapiens, UniProt P32298)
CDK9 = CDK9 (Homo sapiens, UniProt P50750)
EPHB2 = target: T1, EPHB2 (Homo sapiens, UniProt P29323)
T1 sequence (P29323 1-1055): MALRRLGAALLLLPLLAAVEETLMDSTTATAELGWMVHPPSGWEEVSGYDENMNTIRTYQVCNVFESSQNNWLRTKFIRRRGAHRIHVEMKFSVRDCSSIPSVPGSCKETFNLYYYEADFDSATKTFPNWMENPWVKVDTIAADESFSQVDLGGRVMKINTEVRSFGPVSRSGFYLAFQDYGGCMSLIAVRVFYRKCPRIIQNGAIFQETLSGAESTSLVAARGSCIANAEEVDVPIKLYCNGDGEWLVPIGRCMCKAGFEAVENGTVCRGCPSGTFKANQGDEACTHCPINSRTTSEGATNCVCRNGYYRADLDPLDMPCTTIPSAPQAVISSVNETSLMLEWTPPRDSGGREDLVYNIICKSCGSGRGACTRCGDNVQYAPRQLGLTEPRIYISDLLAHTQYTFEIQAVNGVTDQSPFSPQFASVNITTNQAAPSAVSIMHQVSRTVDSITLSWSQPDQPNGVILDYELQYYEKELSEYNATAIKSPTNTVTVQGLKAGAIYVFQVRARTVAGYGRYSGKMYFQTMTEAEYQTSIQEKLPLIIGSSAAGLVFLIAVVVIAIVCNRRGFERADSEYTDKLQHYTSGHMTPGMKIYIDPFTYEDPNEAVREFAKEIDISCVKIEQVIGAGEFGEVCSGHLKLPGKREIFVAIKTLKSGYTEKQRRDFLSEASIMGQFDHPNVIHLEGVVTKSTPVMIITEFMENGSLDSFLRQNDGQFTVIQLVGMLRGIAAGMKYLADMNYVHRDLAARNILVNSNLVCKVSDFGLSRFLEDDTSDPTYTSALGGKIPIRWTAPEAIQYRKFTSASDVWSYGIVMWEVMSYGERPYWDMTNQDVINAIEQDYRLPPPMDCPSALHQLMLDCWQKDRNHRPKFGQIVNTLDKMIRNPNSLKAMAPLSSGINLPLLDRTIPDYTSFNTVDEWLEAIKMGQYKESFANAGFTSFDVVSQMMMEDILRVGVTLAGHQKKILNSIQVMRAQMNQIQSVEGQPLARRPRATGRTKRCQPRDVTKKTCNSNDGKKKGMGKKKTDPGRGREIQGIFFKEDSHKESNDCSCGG

PIK3C2G = target: T2, PIK3C2G (Homo sapiens, UniProt O75747)
T2 sequence (O75747 1-1486): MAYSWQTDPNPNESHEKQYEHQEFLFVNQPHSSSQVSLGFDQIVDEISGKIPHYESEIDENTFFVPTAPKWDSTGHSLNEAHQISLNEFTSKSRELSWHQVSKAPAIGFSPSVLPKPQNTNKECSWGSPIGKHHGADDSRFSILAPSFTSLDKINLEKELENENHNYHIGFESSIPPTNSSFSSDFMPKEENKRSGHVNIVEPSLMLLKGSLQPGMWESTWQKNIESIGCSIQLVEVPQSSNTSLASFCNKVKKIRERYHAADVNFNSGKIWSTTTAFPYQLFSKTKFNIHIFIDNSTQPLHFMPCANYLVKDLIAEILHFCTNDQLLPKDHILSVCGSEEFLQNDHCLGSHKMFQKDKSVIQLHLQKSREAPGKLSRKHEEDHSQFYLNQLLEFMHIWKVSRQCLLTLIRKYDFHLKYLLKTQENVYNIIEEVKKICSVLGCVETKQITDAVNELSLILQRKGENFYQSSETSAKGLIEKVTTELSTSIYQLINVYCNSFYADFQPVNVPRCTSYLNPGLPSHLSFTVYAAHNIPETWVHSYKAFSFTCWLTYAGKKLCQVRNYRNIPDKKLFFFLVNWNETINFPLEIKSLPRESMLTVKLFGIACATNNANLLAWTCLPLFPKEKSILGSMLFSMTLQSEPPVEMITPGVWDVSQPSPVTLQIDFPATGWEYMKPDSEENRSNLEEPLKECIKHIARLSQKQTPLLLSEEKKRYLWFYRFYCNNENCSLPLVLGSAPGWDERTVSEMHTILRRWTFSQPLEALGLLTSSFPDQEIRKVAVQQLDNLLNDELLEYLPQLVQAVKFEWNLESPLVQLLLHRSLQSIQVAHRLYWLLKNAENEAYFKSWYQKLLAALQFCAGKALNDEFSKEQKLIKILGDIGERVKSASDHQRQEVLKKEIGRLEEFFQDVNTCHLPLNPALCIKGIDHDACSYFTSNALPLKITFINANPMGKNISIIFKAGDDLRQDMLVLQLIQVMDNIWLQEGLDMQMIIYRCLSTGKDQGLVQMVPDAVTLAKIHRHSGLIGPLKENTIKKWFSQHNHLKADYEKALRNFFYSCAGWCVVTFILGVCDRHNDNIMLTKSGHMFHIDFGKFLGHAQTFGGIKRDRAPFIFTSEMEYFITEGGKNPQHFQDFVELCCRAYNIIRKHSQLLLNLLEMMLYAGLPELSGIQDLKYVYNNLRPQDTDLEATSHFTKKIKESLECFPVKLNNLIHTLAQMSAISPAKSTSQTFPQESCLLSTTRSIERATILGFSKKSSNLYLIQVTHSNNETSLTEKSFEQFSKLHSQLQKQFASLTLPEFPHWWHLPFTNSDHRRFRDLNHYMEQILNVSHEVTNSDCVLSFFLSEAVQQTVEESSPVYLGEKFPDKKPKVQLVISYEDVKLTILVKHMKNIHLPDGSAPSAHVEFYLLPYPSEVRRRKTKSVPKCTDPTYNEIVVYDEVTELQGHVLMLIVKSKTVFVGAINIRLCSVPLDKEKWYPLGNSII

[1] = read-out: Niraparib (MK-4827) / %Ctrl @ 10000nM
[2] = read-out: Olaparib / %Ctrl @ 10000nM
[3] = read-out: Rucaparib / %Ctrl @ 10000nM, binding competition, % of control
[4] = read-out: Talazoparib (BMN 673) / %Ctrl @ 10000nM

CDK9, sequence (P50750 whole entry): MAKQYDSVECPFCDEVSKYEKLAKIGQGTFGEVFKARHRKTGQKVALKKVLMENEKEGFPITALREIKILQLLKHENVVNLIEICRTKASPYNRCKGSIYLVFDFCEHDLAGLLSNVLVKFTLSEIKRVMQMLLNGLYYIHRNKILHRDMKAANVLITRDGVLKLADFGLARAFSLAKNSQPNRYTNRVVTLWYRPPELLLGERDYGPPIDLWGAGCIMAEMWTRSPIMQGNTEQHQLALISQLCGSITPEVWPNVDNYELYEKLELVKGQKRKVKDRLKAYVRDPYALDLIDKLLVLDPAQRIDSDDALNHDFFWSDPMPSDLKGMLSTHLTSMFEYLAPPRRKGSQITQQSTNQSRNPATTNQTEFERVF
GRK4, sequence (P32298 whole entry): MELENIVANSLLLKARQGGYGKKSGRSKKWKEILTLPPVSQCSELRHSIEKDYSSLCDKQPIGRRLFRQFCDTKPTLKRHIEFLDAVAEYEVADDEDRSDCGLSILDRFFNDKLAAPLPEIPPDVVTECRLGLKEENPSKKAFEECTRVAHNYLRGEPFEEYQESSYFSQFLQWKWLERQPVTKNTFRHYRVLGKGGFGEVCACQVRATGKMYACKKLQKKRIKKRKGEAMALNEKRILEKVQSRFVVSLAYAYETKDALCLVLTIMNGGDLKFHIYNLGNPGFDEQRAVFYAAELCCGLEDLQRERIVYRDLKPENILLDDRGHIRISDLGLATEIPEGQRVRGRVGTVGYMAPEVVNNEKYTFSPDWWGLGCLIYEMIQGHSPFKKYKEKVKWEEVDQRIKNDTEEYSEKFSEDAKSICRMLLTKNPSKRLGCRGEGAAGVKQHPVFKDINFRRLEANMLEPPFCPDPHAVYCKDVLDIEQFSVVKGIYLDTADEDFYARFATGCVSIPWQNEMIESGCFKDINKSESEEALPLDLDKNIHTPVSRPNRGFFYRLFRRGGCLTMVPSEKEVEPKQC
IRAK1, sequence (P51617 whole entry): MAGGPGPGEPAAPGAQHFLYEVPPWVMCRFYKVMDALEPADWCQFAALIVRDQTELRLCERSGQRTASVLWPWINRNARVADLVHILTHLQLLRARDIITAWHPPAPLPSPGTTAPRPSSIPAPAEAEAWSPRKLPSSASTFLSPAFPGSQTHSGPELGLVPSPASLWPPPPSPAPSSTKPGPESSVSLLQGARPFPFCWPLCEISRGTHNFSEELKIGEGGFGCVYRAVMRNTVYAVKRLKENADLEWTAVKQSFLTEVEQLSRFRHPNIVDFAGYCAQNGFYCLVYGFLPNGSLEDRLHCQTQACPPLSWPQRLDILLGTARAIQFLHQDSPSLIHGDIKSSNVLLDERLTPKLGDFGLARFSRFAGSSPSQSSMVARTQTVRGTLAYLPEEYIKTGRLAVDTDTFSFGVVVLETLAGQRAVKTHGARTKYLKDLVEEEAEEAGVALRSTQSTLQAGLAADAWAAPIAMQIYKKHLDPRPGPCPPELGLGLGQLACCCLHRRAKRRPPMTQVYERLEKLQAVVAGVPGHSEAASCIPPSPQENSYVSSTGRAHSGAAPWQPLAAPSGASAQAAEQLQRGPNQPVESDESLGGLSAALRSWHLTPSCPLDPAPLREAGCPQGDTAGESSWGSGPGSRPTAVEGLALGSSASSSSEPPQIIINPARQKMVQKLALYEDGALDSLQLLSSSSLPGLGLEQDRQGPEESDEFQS

SMILES: NC(=O)c1cccc2cn(-c3ccc([C@@H]4CCCNC4)cc3)nc12 [Niraparib]
percent of control binding at 10 µM (IRAK1; [1]): 18%
percent of control binding at 10 µM (GRK4; [1]): 62%
percent of control binding at 10 µM (CDK9; [1]): 100%
percent of control binding at 10 µM (EPHB2; [1]): 75%
percent of control binding at 10 µM (PIK3C2G; [1]): 79%

percent of control binding at 10 µM (IRAK1; [2]): 82%
percent of control binding at 10 µM (GRK4; [2]): 91%
percent of control binding at 10 µM (CDK9; [2]): 100%
percent of control binding at 10 µM (EPHB2; [2]): 95%
percent of control binding at 10 µM (PIK3C2G; [2]): 82%
SMILES: O=C(c1cc(Cc2n[nH]c(=O)c3ccccc23)ccc1F)N1CCN(C(=O)C2CC2)CC1 [Olaparib]

percent of control binding at 10 µM (IRAK1; [3]): 19%
percent of control binding at 10 µM (GRK4; [3]): 100%
percent of control binding at 10 µM (CDK9; [3]): 78%
percent of control binding at 10 µM (EPHB2; [3]): 91%
percent of control binding at 10 µM (PIK3C2G; [3]): 73%
SMILES: CNCc1ccc(-c2[nH]c3cc(F)cc4c3c2CCNC4=O)cc1 [Rucaparib]

percent of control binding at 10 µM (IRAK1; [4]): 88%
percent of control binding at 10 µM (GRK4; [4]): 100%
percent of control binding at 10 µM (CDK9; [4]): 100%
percent of control binding at 10 µM (EPHB2; [4]): 89%
percent of control binding at 10 µM (PIK3C2G; [4]): 81%
SMILES: Cn1ncnc1[C@H]1c2n[nH]c(=O)c3cc(F)cc(c23)N[C@@H]1c1ccc(F)cc1 [Talazoparib]
